Experimental data as given in paper PMC9462664, “Preparation and identification of anti-breast cancer cells peptides released from yak milk casein” (Frontiers in Nutrition, 2022).
No end group written: not given here.

Assays:
pepsin and trypsin = assay: Stability against simulated gastrointestinal digestion; format: in vitro ADME; details: peptide 5 mg/mL, pepsin pH 1.2, 37°C, 2 h, then trypsin pH 8, 37°C, enzyme:peptide 1:100 (w/w), RP-HPLC, new peaks digested vs undigested
Procedure: Stability of peptides against simulated gastrointestinal digestion was performed according to the method outlined previously with slight modification ([19]). Briefly, peptide solution (5 mg/mL) was digested by pepsin (pH 1.2, 37°C) for 2 h. Then the pH of the resulting solution was altered to eight with NaOH (1.0°M) to inactivate pepsin, and the peptides solution was further digested by trypsin (2 h, 37°C). Finally, trypsin was inactivated by a hot water bath (95°C, 10 min). The ratio of enzyme to peptide was 1:100 (w/w) in the two digesting processes. The digested and undigested samples were loaded into HPLC (1260 Infinity, Agilent, Santa Clara, CA, United States), respectively, to evaluate the stability of the peptides. […]

MDA-MB-231 cells [1] = assay: Cell apoptosis determination (Annexin V/PI, flow cytometry); format: cell-based; details: 500 μg/mL, 48 h, Annexin-V and PI, mean ± SD
Procedure: (§1) Cell apoptosis determination was conducted by Annexin V staining of externalized phosphatidylserine in apoptotic cells using a cell apoptosis kit. Then the proportion of the apoptotic cells was analyzed by a BD flow cytometry (FACS101, Becton, Dickinson and Company, Franklin Lakes, NJ, United States).
(§2) FIGURE 7 TPVVVPPFL induced morphology alteration (A) and apoptosis of mammary carcinoma cells (B). MCF7 and MDA-MB-231 cells were incubated with TPVVVPPFL for 48 h at the concentration of 250 and 500°μg/mL, respectively. The image of the two cells was acquired by the inverted microscope, and the apoptotic cells were measured using a flow cytometry after treatment with Annexin-V and PI.

MCF7 cells [2] = assay: as above; format: cell-based; details: 250 μg/mL, 48 h, Annexin-V and PI, mean ± SD
Procedure: as §1, §2

MDA-MB-231 cells [3] = assay: Cell cycle determination (PI, flow cytometry); format: cell-based; details: 500 μg/mL, 48 h
Procedure: (§3) Cell cycle determination was conducted using a cell cycle kit according to its instructions. Trypsinized cells (MDA-MB-231 or MCF7) were pipetted into the 6-well plate and cultured. When cells confluence reached 50%, peptides were added to the wells, and the treatment lasted 48 h. The cells were harvested and washed with PBS. After being fixed by cold 75% ethanol, cells were treated with RNase A followed by incubation with PI. Finally, the cell cycles of samples were measured by a BD flow cytometer (FACS101, Becton, Dickinson and Company, Franklin Lakes, NJ, United States).
(§4) FIGURE 6 TPVVVPPFL elicited cell arrest of mammary carcinoma cells. MCF7 cells were incubated with TPVVVPPFL for 48 h at the concentration of 250°μg/mL. MDA-MB-231 cells were incubated with TPVVVPPFL for 48 h at the concentration of 500°μg/mL. The cell cycle distributions were analyzed using flow cytometry after treatment with PI.

MCF7 cells [4] = assay: Cell cycle determination (PI, flow cytometry); format: cell-based; details: 250 μg/mL, 48 h
Procedure: as §3, §4

MDA-MB-231 cells [5] = format: cell-based
Procedure: (§5) The culture medium of MDA-MB-231 and MCF7 cells were DMEM containing 10% FBS and 1% AAC. The culture medium of MCF10A was DMEM/F12 containing CT (100°ng/mL), EGF (20°ng/mL), HS (5%), hydrocortisone (0.5°μg/mL), and insulin (10°ug/mL). All the cells were incubated using an incubator (MCO-20AIC, SANYO, Japan) with 5% CO2 and 95% humidity at 37°C.
(§6) Cell activity inhibition was conducted using a CCK8 kit according to the procedure offered by the manufacturer. The trypsinized cells were transferred into the 96-well plate (8,000 cells/well) and cultured for 24 h, then they were incubated with PBS (Control), YMCH (250°μg/mL) or synthetic peptides (0, 62.5, 125, 250, 500, and 1,000°μg/mL) for 48 h or 24–72 h. The CCK8 agent (20°μL) was pipetted into the well followed by incubation (37 °C, 4 h). The absorbance of the medium was acquired at 450 nm using a microplate reader (Multiskan Spectrum, Thermo, Waltham, MA, United States). Finally, according to the below formulae, the cell viability and its inhibition rate were calculated.
(§7) Cellviability(%)=Absorbanceofmediumfromthetreatmentgroup/Absorbanceofmediumfromthecontrolgroup×100
(§8) Inhibitionrateofcellviability(%)=(1Absorbanceofmediumfromthetreatmentgroup/Absorbanceofmediumfromthecontrolgroup)×100

MCF7 cells [6] = format: cell-based
Procedure: as §5, §6, §7, §8

NQFLPYPY [NQFLPYPY]
stability against simulated gastrointestinal digestion (pepsin and trypsin): stable in the simulated digestion condition

TPVVVPPFL [TPVVVPPFL]
stability against simulated gastrointestinal digestion (pepsin and trypsin): stable in the simulated digestion condition | apoptosis rate (MDA-MB-231 cells [1]): 35.11 ± 2.95% | apoptosis rate (MCF7 cells [2]): 48.37 ± 2.74% | cell cycle arrest (MDA-MB-231 cells [3]): S arrest | cell cycle arrest (MCF7 cells [4]): G2/M arrest | IC50 (MDA-MB-231 cells [5]): 500 µg/mL | IC50 (MCF7 cells [6]): 250 µg/mL

VAPFPEVFGK [VAPFPEVFGK]
stability against simulated gastrointestinal digestion (pepsin and trypsin): hydrolyzed
